# Measurements taken from patent US20050239720A1, “Combination of an agent that attenuates topoisomerase 1 activity and an agent that inhibits heat shock protein 90 for use in chemotherapy” (UNIVERSITY OF LIVERPOOL Senate House, priority 2002, published 2005).
# Test system: HCT116 p53 WT cells and p53 KO cells
# Experiment: Growth inhibition assay (sulforhodamine B)
# Assay type: cell-based, human
# Conditions: single drug alone; HCT116 p53 WT and p53 knockout cells; FIG. 4 and FIG. 5
# Protocol: The isogenic p53 human colon cancer cell line (WT and KO), HCT116 (see Hwang et al. Nat Med 2001 November 7(11):1255). Cells were maintained in McCoys 5A medium (Sigma) supplemented with 10% foetal calf serum (Gibco) at 37° C. in a 5% CO2 enriched humidified environment, Penicillin and Streptomycin. 96 well flat-bottomed plates were seeded with 3×10^3 cells per well and allowed to adhere overnight. Media was then replaced with fresh media alone (control) or containing test drugs e.g. 0-100 μM irinotecan, 50 to 200 nM geldanamycin (GA) and combinations of both. At fixed time points, cells were fixed with 3:1 methanol:acetic acid and stained with 0.4% w/v sulforhodamine B (Sigma) in 1% v/v acetic acid for 30 minutes. Plates were then washed twice with 1% v/v acetic acid, the dye solubilised with 100 μl per well of 10 mM Tris pH 10.4 and read at […] using a Benchmark microplate reader (BioRad). Drugs were used in the following concentrations for Growth inhibition and Clonogenic assays: [table]
row,Compound,effect on cell growth
1,COC1=C2C[C@@H](C)C[C@H](OC)[C@H](O)[C@@H](C)/C=C(\C)[C@H](OC(N)=O)[C@@H](OC)/C=C\C=C(/C)C(=O)NC(=CC1=O)C2=O [Geldanamycin],inhibitory effects
2,CCc1c2c(nc3ccc(OC(=O)N4CCC(N5CCCCC5)CC4)cc13)-c1cc3c(c(=O)n1C2)COC(=O)[C@]3(O)CC [Irinotecan],inhibitory effects
